# Experimental data as given in patent US7220780B2, “Naaladase inhibitors for treating retinal disorders and glaucoma” (Guilford Pharmaceuticals Inc., priority 2000, dated 2007).
# Key:
# male Brown Norway rats [1] = experiment: Optic nerve transection in rats, optic nerve fiber counting; assay type: in vivo, Rattus norvegicus; details: for FIBER NUMBER ± SEM / PERCENT DIFFERENCE ± SEM: 10 mg/kg daily i.p.; for PERCENT DIFFERENCE ± SEM: transected vs normal eye
# Protocol: (§1) All experiments complied with the Association for Research in Vision and Ophthalmology Statement for the Use of Animals in Ophthalmic and Vision Research. 82 male Brown Norway rats (Rattus norvegicus), each weighing approximately 250 gm, were treated using procedures approved by the Animal Care Committee of the Johns Hopkins University School of Medicine. The rats were housed with a 12 hour light/12 hour dark cycle and fed ad libitum .
# OPTIC NERVE TRANSECTION: The optic nerve was transected unilaterally in 26 rats under intraperitoneal pentobarbital anesthesia. The conjunctiva was opened with scissors and the optic nerve exposed by traction on extraocular muscles. The transection was performed with microscissors 5 mm posterior to the globe, with specific attention to avoidance of injury to major ocular blood vessels. Immediately after transection, the retina was examined ophthalmoscopically to assure that the retinal arterial blood supply was not disrupted. The conjunctiva was closed with absorbable suture and the eye dressed with antibiotic ointment. Beginning on the day of transection, the rats were treated daily with intraperitoneal injections of either a vehicle (9 rats with 50 mM HEPES-buffered saline) or a NAALADase inhibitor (8 rats with 10 mg/kg of Compound A and 9 rats with 10 mg/kg of Compound B). 5 saline treated rats, 3 Compound A treated rats and 4 Compound B treated rats were sacrificed at 2 weeks, and the remaining rats at 4 weeks, after transection.
# (§2) OPTIC NERVE COUNTING: The rats were sacrificed by exsanguination under deep pentobarbital anesthesia. They were perfused through the heart with 2% paraformaldehyde/2% glutaraldehyde in 0.1 M phosphate buffer, pH 7.2, and the eyes with attached optic nerves were removed. A cross-section of the optic nerve from both experimental (glaucoma or transection) and control eyes was removed 1.5 mm posterior to the globe, 1 mm in thickness, and post-fixed in 2% osmium tetroxide in buffer. These were processed into epoxy resin, sectioned at 1 micron and stained with toluidine blue.
# (§3) The area of the optic nerve cross-section was measured by outlining its outer border at 10×magnification on an image analysis system (Universal Imaging Corp., Westchester, Pa.) with Synsys digital camera and Metamorph software. Three area measurements were taken and the mean value was determined. To measure the density and fiber diameter distributions, images were captured with a 100× phase contrast objective from 10 different areas of each nerve. These were edited to eliminate non-neural objects and the size of each axon internal to the myelin sheath (its minimum diameter) and the density of axons/square mm were calculated for each image and nerve. The mean density was multiplied by total nerve area to yield fiber number for each nerve. The total fiber number in glaucoma or transection nerves was compared to the normal, fellow eye of each rat to yield a percent loss value. The number of axons counted among the 10 images was an approximately 20% sample of the 80-90,000 axons in normal rat nerves. The person measuring axon number was masked to the protocol conducted on the nerves.
# male Brown Norway rats [2] = experiment: Experimental rat glaucoma (IOP elevation by hypertonic saline), optic nerve fiber counting; assay type: in vivo; details: 8 week group, 10 mg/kg daily i.p.
# Protocol: as §1
# EXPERIMENTAL GLAUCOMA: Unilateral elevation of IOP was produced in 56 rats by microinjection of hypertonic saline into episcleral veins, following procedures described in Morrison, J. et al., IOVS (March 1998) 39:526-531. Beginning on the day of IOP elevation, the rats were treated daily with intraperitoneal injections of either a vehicle (23 rats with 50 mM HEPES-buffered saline) or a NAALADase inhibitor (11 rats with 10 mg/kg of 2-[[(2,3,4,5,6-pentafluorobenzyl)hydroxyphosphinyl]-methyl]pentanedioic acid (“Compound A”) and 22 rats with 10 mg/kg of 2-(3-sulfanylpropyl)pentanedioic acid (“Compound B”)). 11 saline treated rats, 11 Compound A treated rats and 11 Compound B treated rats were sacrificed at 8 weeks, and the remaining rats at 12 weeks, after initial IOP elevation.
# as §2, §3
# [3] = 2 weeks survival after transection
# [4] = 4 weeks survival after transection
smiles,measurement,setting,value
"O=C(O)CCC(CP(=O)(O)Cc1c(F)c(F)c(F)c(F)c1F)C(=O)O (centres unmarked) [Compound A, 2-[[(2,3,4,5,6-pentafluorobenzyl)hydroxyphosphinyl]-methyl]pentanedioic acid]",remaining axons relative to the saline-treated rats,male Brown Norway rats [1]; 2 weeks after transection,3 times
same,FIBER NUMBER ± SEM,male Brown Norway rats [1]; [3],"26,426 ± 13,293"
same,PERCENT DIFFERENCE ± SEM,male Brown Norway rats [1]; [3],65.3 ± 17.8%
same,FIBER NUMBER ± SEM,male Brown Norway rats [1]; [4],"13,599 ± 3,519"
same,PERCENT DIFFERENCE ± SEM,male Brown Norway rats [1]; [4],82.4 ± 4.0%
same,FIBER NUMBER ± SEM,male Brown Norway rats [2],79156 ± 2436
same,PERCENT DIFFERENCE ± SEM,"male Brown Norway rats [2]; fiber number glaucoma vs normal eye, positive = fewer fibers in glaucoma eye",−1.82 ± 2.92%
same,IOP INTEGRAL DIFFERENCE ± SEM,male Brown Norway rats [2]; glaucoma eye vs normal eye,85 ± 37.5 mm Hg—days
